Measured values taken from patent US20240252486A1, “ALGOSTATIC AGENTS FOR PREVENTING TRANSITION FROM ACUTE TO CHRONIC PAIN” (The Regents of the University of California, priority 2021, published 2024).
Entries after “also recorded” stand apart in the source; their conditions may differ.

Legend:
formalin-injected mice [1] = test: Formalin-induced chronic pain-like state (CPLS): persistent hypersensitivity to heat and mechanical stimuli; type: in vivo, mouse; details: for conversion to CPLS (contralateral hyperalgesia, PFD14): maximally effective dosages on PFD2-4: gabapentin 50 mg-kg^−1 IP, morphine 10 mg-kg^−1 subcutaneous, ketamine 4 mg-kg^−1 IP, ketoprofen 100 mg-kg^−1 IP, WT mice, formalin; for alleviation of the hypersensitive state (contralateral hyperalgesia): mouse, in vivo; for pain chronification (contralateral hyperalgesia): GW7647 10 mg-kg^−1 IP, post-procedural day 2-4
PPAR-α = target: T1, PPAR-α (Homo sapiens, UniProt Q07869); details: activation of PPAR-α by exogenous PEA; cited from earlier work
T1 sequence (Q07869 1-468): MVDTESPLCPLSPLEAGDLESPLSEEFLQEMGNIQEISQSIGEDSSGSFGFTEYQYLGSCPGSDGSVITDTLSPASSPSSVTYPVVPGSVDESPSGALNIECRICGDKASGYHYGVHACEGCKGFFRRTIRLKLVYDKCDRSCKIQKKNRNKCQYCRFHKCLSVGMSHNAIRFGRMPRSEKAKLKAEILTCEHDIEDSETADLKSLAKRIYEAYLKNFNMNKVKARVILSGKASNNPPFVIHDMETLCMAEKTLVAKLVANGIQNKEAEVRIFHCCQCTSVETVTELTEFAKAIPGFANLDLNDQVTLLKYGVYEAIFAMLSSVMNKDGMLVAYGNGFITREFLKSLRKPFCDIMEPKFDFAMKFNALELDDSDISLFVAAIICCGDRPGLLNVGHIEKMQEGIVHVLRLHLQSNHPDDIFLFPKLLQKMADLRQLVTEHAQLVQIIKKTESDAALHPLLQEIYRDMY

mice and rats = details: cited from earlier work; for sensory abnormalities caused by carrageenan injection, ultraviolet B-radiation or CCI: mice and rats
naïve mice = test: Capsaicin-evoked nocifensive behavior; type: in vivo, mouse
Experimental: Capsaicin: Capsaicin or its vehicle was injected into the plantar surface of the left hind paw (20 μl) or left forepaw (10 μl), i.e. contralaterally to the formalin injection site. Nocifensive behavior was videorecorded for 10 min and evaluated under blinded conditions.

[2] = test system: male rat model of type-1 diabetes; details: cited from earlier work
rodents = details: male (but not female) rodents; cited from earlier work
macrophages = details: cited from earlier work
activated leukocytes = details: topical application; cited from earlier work
[3] = test system: spinal-cord transcription; test: RNA sequencing and metabolomic analysis of L4-L6 spinal cord; type: in vivo, mouse; details: GW7647, post-injury
Experimental: RNA sequencing and bioinformatics analysis: We extracted total RNA with the RNeasy Mini Kit (Qiagen). Samples with RNA integrity number ≥8.5 were kept for library construction. cDNA synthesis, amplification, library construction, and sequencing were performed at Novogene (Bejing, China) using the Illumina NovaSeq platform with paired-end 150 bp (PE 150) sequencing strategy. Downstream analysis was performed using a combination of programs including STAR, HTseq, Cufflink and Novogene's wrapped scripts. Alignments were parsed using the STAR program and differential expressions were determined using DESeq2/edgeR. Gene Ontology (GO) and Kyoto Encyclopedia of Genes and Genomes (KEGG) enrichment were implemented using the ClusterProfiler.
Metabolomic analysis: Metabolomics analyses were performed at the West Coast Metabolomics Center of the University of California Davis, as described^55. Briefly, frozen lumbar spinal cord (L4-L6) fragments (˜5 mg) were homogenized in Eppendorf tubes (2 ml) for 2 min using metal spheres ([…] diameter) in a MM300 mill (Retsch, Germany). A mixture of isopropanol/acetonitrile/water (3/3/2, vol) was added to the grounded tissue (1 ml per 20 mg), stirred for 10 s and shaken at 4° C. for 5 min. […]

[4] = test system: DRG neurons co-cultured with fibrosarcoma cells; details: cited from earlier work
[5] = test system: fibrosarcoma-bearing mice; details: cited from earlier work
[6] = in vivo; cited from earlier work
[7] = test system: PEA levels in diseased tissues of CCI and tumor-bearing mice; details: cited from earlier work
naïve animals = test: Baseline nociceptive thresholds in naïve animals; type: in vivo, mouse; details: ARN19702 30 mg-kg^−1 IP, ARN16186 10 mg-kg^−1 IP
formalin-injected mice [8] = test: Formalin-induced paw edema; type: in vivo, mouse; details: pretreatment; ARN16186 10 mg-kg^−1 IP, ARN19702 30 mg-kg^−1 IP; wild-type mice, 1% formalin
Experimental: Paw edema was measured with a digital caliper (Fisher Scientific, USA) and is expressed as the difference (A paw thickness, mm) between ipsilateral and contralateral paws.

formalin-injected mice [9] = test: Formalin test: acute nocifensive behavior; details: pretreatment; ARN16186 10 mg-kg^−1 IP, ARN19702 30 mg-kg^−1 IP; wild-type mice, 1% formalin

CCCCCCCCCCCCCCCC(=O)NCCO [PEA, palmitoylethanolamide]
CPLS (formalin-injected mice [1]; on PFD2-4, PEA 30 mg-kg^−1 subcutaneous, fenofibrate 100 mg-kg^−1 IP): blocked | inflammation (PPAR-α): attenuates | mitochondrial respiration (PPAR-α): stimulates | pain (PPAR-α): attenuates | sensory abnormalities caused by carrageenan injection, ultraviolet B-radiation or CCI (mice and rats): mimicked

NCC1(CC(=O)O)CCCCC1 [gabapentin]
conversion to CPLS (contralateral hyperalgesia, PFD14) (formalin-injected mice [1]): not mimicked; also recorded: failed to stop; also recorded: do not prevent; also recorded: fail to prevent | alleviation of the hypersensitive state (contralateral hyperalgesia) (formalin-injected mice [1]): only temporarily alleviated

COc1cc(CNC(=O)CCCC/C=C/C(C)C)ccc1O [capsaicin]
median effective dose (ED50), nocifensive response (naïve mice; forepaw CPS injection, formalin-naïve mice): ~0.1 µg | half-maximal dose, nocifensive response (naïve mice; intraplantar hind paw injection): 0.1 µg

NC(=O)c1cccc(-c2cccc(OC(=O)NC3CCCCC3)c2)c1 [URB597]
emergence of formalin-induced CPLS (contralateral hyperalgesia and allodynia) (formalin-injected mice [1]; URB597 3 mg-kg^−1 IP once daily from PFD3 to PFD5, male mice): prevents the emergence

CN1CC[C@]23c4c5ccc(O)c4O[C@H]2[C@@H](O)C=C[C@H]3[C@H]1C5 [morphine]
alleviation of the hypersensitive state (contralateral hyperalgesia) (formalin-injected mice [1]): only temporarily alleviated

CN(C)C(=N)N=C(N)N [metformin]
therapeutic efficacy in painful peripheral neuropathy [2]: may exhibit therapeutic efficacy | neuropathic pain (rodents): prevents | macrophage phenotype shift toward glycolysis / trained immunity (macrophages): stopped

CCC(=O)NC[C@H](Cc1ccc(OCCc2nc(-c3ccccc3)oc2C)cc1)N/C(C)=C\C(=O)c1ccc(C(F)(F)F)cc1 [GW6471]
loss of the ARN19702 effect on transition to CPLS (formalin-injected mice [1]; wild-type animals pretreated with GW6471 4 mg-kg^−1 IP, 15 min prior to ARN19702): replicated | effects of ARN077 on sensory abnormalities in the presence of the PPAR-α antagonist (mice and rats; rats): prevented

CC(C(=O)O)c1cccc(C(=O)c2ccccc2)c1 (centres unmarked) [ketoprofen]
conversion to CPLS (contralateral hyperalgesia, PFD14) (formalin-injected mice [1]): not mimicked; also recorded: failed to stop; also recorded: do not prevent; also recorded: fail to prevent

O=C(CCc1ccccc1)N[C@H]1COC1=O [(S)-OOPP]
PEA levels in activated leukocytes (activated leukocytes): reinstates normal | inflammatory responses induced by carrageenan or endotoxin (activated leukocytes): blunts

CC(C)(Sc1ccc(CCN(CCCCC2CCCCC2)C(=O)NC2CCCCC2)cc1)C(=O)O [GW7647]
pain chronification (contralateral hyperalgesia) (formalin-injected mice [1]; NAAA-overexpressing mice treated with 0.1% formalin): stopped | pain chronification (contralateral hyperalgesia) (formalin-injected mice [1]; wild-type mice treated with 1% formalin): stopped | injury-associated changes in spinal-cord transcription [3]: prevented

C[C@@H]1OC(=O)[C@@H]1NC(=O)OCCCCCc1ccccc1 [ARN077]
persistent hypersensitivity (CPLS) elicited by formalin (formalin-injected mice [1]; post-injury intrathecal infusion, 30 ng, 5 μL, at PFD2 and PFD4, assessed PFD14): stopped | calcium signaling [4]: rapidly normalizes | mechanical hypersensitivity [5]: reduces | sensory abnormalities caused by carrageenan injection, ultraviolet B-radiation or CCI (mice and rats): corrects | crossing of the blood-brain barrier [6]: cannot cross; also recorded: does not cross | PEA levels in diseased tissues [7]: restores baseline

CNC1(c2ccccc2Cl)CCCCC1=O (centres unmarked) [ketamine]
conversion to CPLS (contralateral hyperalgesia, PFD14) (formalin-injected mice [1]): not mimicked; also recorded: failed to stop; also recorded: do not prevent; also recorded: fail to prevent

CCCCc1ccc(OC2C[C@H]3CC[C@@H](C2)N3S(=O)(=O)c2c(C)n[nH]c2C)cc1 (some centres unmarked) [ARN16186]
protective effects of ARN19702 against CPLS (contralateral hyperalgesia) (formalin-injected mice [1]; ARN16186 10 mg-kg^−1 IP once daily PFD1 to PFD3, male mice): mimicked | NAAA-null phenotype (weakened nocifensive response, no inflammation or persistent hypersensitivity after formalin) (formalin-injected mice [1]; pretreatment of wild-type mice, ARN19702 30 mg-kg^−1 IP, ARN16186 10 mg-kg^−1 IP): recapitulated | persistent contralateral hyperalgesia (PFD14) (formalin-injected mice [1]; pretreatment, ARN16186 10 mg-kg^−1 IP, ARN19702 30 mg-kg^−1 IP, wild-type mice, 1% formalin): prevents | baseline nociceptive thresholds (naïve animals): Neither compound affected | paw edema (PFD14) (formalin-injected mice [8]): prevents | nocifensive response to formalin (formalin-injected mice [9]): prevents
